For assay [1], the target named is PI3-Kα (Mus musculus (Mouse), UniProt P42337). Nature of the assay: PI3-Kα Biochemical Assay (fluorescence polarization kinase assay). In a few lines:
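Co-expressed mouse p110/p85 PI3-Kα (4 nM stock) acting on PI(4,5)P2 (60 μM stock) with ATP/MgCl2 in HEPES pH 7.4 buffer, 35 min at room temperature, then EDTA stop. PI(3,4,5)P3 product detected by displacement of TAMRA-PIP3 from Grip1 PH domain (FP, 535/580 nm). IC50 from sigmoidal fit of % inhibition.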
In general terms: Polarisation of emitted light reports the rotation of a fluorescent probe.

Assay [2] relates to PI3-K in BT20 cells (phosphorylation of AKT at serine 473). Nature of the assay: PI3-Kα Cellular Assay (AKT Ser473 phosphorylation ELISA in BT20 cells). In kind it is cell-based, human. Conditions: Homo sapiens, BT-20, pAKT Ser473 ELISA, 1 hour incubation. In short, it runs like this: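 Cells seeded overnight in 0.5% FBS, then exposed 1 h at 37 °C to an 11-concentration 1:3 dilution series, in duplicate.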
Background: An ELISA detects its analyte on a solid surface through an enzyme-linked reagent.

Sequence of PI3-Kα (P42337 whole entry, the tested form may be a part): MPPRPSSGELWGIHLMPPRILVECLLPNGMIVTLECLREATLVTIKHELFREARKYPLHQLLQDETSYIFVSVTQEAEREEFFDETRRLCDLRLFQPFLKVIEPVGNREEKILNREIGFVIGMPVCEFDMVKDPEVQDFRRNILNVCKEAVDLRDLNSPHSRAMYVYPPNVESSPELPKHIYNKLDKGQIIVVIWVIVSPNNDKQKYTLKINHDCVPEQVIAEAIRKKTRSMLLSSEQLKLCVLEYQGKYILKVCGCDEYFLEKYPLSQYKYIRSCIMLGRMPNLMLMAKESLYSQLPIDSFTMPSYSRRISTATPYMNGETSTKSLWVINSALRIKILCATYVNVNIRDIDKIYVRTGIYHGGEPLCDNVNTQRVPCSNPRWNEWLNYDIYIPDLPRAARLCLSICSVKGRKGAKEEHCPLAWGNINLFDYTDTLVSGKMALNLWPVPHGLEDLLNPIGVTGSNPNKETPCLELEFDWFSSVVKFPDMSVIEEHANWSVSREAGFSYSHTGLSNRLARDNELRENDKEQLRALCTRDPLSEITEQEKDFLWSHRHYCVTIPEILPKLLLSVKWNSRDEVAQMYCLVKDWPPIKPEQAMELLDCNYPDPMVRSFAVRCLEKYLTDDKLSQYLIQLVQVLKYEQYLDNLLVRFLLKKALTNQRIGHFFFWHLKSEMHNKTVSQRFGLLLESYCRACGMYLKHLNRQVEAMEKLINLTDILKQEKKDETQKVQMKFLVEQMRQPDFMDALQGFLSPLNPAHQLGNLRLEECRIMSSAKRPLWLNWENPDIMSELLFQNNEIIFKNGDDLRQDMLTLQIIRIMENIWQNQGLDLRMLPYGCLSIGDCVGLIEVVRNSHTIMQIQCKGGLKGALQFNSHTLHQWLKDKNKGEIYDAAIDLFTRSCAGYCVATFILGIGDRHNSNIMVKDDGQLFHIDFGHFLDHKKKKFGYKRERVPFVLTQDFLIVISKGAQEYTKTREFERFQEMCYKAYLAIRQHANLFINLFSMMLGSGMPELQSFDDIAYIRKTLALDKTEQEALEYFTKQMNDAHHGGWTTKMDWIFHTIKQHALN
Sequence of PI3-Kα (P26450 whole entry partner, the tested form may be a part): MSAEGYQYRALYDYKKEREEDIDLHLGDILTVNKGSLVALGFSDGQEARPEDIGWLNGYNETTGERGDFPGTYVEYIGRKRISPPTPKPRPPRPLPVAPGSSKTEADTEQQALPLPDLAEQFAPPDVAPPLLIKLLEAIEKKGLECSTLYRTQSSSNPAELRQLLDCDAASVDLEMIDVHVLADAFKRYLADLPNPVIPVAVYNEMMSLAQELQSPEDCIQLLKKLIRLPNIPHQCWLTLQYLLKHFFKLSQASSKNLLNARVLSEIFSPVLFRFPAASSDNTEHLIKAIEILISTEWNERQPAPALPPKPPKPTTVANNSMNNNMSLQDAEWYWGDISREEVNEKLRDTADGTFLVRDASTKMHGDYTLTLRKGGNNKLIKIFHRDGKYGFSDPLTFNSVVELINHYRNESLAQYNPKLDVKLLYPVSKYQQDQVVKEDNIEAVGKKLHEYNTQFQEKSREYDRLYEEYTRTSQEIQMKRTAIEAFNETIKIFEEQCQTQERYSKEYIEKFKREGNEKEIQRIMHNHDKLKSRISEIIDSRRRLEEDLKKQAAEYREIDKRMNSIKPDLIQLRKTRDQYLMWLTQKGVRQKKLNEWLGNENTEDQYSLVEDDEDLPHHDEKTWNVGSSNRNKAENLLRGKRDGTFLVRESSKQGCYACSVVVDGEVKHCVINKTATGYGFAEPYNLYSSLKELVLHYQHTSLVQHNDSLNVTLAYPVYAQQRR

In general, IC50 refers to the concentration that inhibits the measured activity by half. Take `COc1ncc(-c2cc3c(C)nc(N)nc3n([C@H]3C[C@H](OCC(N)=O)C3)c2=O)cc1F` [Compound 318, 2-({trans-3-(2-amino-6-(5-fluoro-6-methoxypyridin-3-yl)-4-methyl-7-oxopyrido[2,3-yl]pyrimidin-8(7H)-yl)cyclobutyl}oxy)acetamide]: the results for the IC50 in assay [1] and in assay [2] were 2.14 nM and 12.6 nM, respectively.
On the same counts, the results for `COc1ncc(-c2cc3c(C)nc(N)nc3n([C@H]3C[C@H](OCC(N)=O)C3)c2=O)cn1` [Compound 319, 2-({trans-3-(2-amino-6-(2-methoxypyrimidin-5-yl)-4-methyl-7-oxopyrido[2,3-d]pyrimidin-8(7H)-yl]cydobutyl}oxy)acetamide] are 5.91 nM and 110 nM.
